Results on one molecule are retold here after US11891644B2, “T cells with reduced surface fucosylation and methods of making and using the same” (Seagen Inc., priority 2017, dated 2024).

Experiment [1] relates to A20 cells. Put plainly: Anti-tumor activity of purified T cells or 2FF in s.c. A20 tumor bearing Balb/c mice. Format: in vivo, mouse (Balb/c). Conditions: treatment started at 100 mm^3 tumor; daily 20 mM 2FF in drinking water, or 2×10^6 T cells IP; versus untreated animals or T cells from untreated tumor bearing mice. On the procedure: One group received no treatment, the other three group were treated when the A20 cells reached 100 mm^3 and were treated either with daily 20 mM 2FF in the drinking water, 2×10^6 T-cells isolated from control tumor bearing mice injected IP, or 2×10^6 T-cells isolated from 2FF tumor bearing mice injected IP. Animals were monitored for subsequent tumor progression.

For experiment [2], the system named is primary human T cells. Kind of experiment: Ex-vivo expansion of human peripheral T cells with 2FF, surface fucosylation by flow cytometry (LCA surface staining). Conditions: 100 μM 2FF, 10 days in culture, CD3/CD28 beads + IL2; LCA surface staining (FIG. 4). Format: cell-based. On the procedure:
T cells were isolated from 10 mL of whole blood which was centrifuged first at 1200 rpm (300×g) for 10 min (without brakes). The top layer containing platelets was removed carefully without disrupting the white blood cell layer. Then RosetteSep™ Human T-Cell Enrichment Cocktail (Pan T Cells from StemCell technologies) was added to the remaining blood (500 μLAO mL blood). This was incubated for 20 min and then 1 mL FBS was added along with 10 mL PBS. Histopaque (20-25 mL) placed in a 50 mL Falcon the prepared blood/PBS solution was overlaid very slowly. This was centrifuged with no brake (25° C., 1500 rpm, 25 min). The top layer was removed and the T cells in the buffy coat layer were then removed to a new 50 mL tube. […]
For in vitro culturing of primary human T cell culture, isolated T cells were re-suspended in T cell media (RPMI media supplemented with 10% Fetal calf serum (FCS), 1% Penicillin and moved into two T25 flasks, one with or and one without 100 μM 2-deoxy-2-fluoro-L-fucose. CD3/CD28 antibody coated beads (20 μL/flask) were added to activate the T cells. After 24 hr interleukin 2 (IL2) was added (100 ng/μL). Each time the cells were passaged new IL2 and 2-deoxy-2-fluoro-L-fucose were added. After 10 days in culture, expanded T cells cultured in 2FF were assessed for changes in surface fucosylation by flow cytometry (FIG. 4).
(Flow cytometry measures light scatter and fluorescence of single cells or particles in a stream.)

Experiment [3] deals with CD3+ T cells. Put plainly: Surface fucosylation of CD3+ T cells isolated from spleens of A20 tumor bearing mice, flow cytometry (surface LCA staining). Format: in vivo, mouse (Balb/c). Conditions: T cells from A20 tumor bearing mice treated with 20 mM 2FF in drinking water, LCA staining (FIG. 3). On the procedure: Mice from the untreated and 2FF treated group were sacrificed and spleens taken for CD3 T-cell enrichment. In brief spleens were collected in RPMI containing 2% FBS and cell suspensions passed through a 70 μm mesh nylon strainer washed with 2% RPMI. Cells were suspended in 10 mls of ACK lysis buffer and incubate for 5 min in this buffer to get rid of RBCs. Cells were centrifuged at 300×g for 5 minutes and re-suspended in PBS containing 2% FBS and 1 mM EDTA. T-cells were isolated using EasySep mouse T cell isolation kit as per the manufactures recommendation. Briefly, cells were re-suspended at 10^8 cells/mL to which 50 μL/mL of rat serum was added. Cells were then transferred into a 5 mL polystyrene tube and 50 μL of isolation cocktail added to the sample followed by room temperature incubation for 10 minutes. Rapid spheres were vortexed and 75 μL/mls added followed by room temperature incubation for 2.5 minutes. Sample volume was topped off to 2.5 mL and incubated with the cell isolation magnet for 2.5 minutes. The magnet was inverted and CD3^+ T cells collected and washed twice in RPMI and resuspended at 21.2×10^6 cells/ml.

The subject of experiment [4] is A20 mouse lymphoma cells. Kind of experiment: Growth of s.c. implanted A20 lymphoma in Balb/c mice receiving 2FF in drinking water. The experiment is classed as in vivo, mouse (Balb/c). The settings on record: 20 mM 2FF in drinking water from day 0; s.c. A20 tumors, 20 days; versus control group (FIG. 2). On the procedure: 20 Balb/c mice were implanted with A20 cells (0.2 mL of 5×10^6 cells s.c./mouse), one group of mice consisting of 10 animals received 2FF (20 mM in drinking water) from day 0 to termination of study. A20 lymphoma tumors were allowed to grow out and mice sacrificed after 20 days.

For `C[C@H](O)[C@@H](O)[C@@H](O)[C@H](F)C=O` [2FF, 2-deoxy-2-fluoro-L-fucose], the tumor growth entry in experiment [1] was “significantly delayed tumor growth and in some cases tumor regression”. Moreover, the “decrease in surface fucosylation” value in experiment [2] is on record as “about 85%”. Also, the “surface fucosylation of isolated CD3+ T cells” value in experiment [3] was “significant reduction in surface fucosylation”. Further, the tumor progression entry in experiment [4] is given as “significant delay in tumor progression”.
